Measured values published in ChEMBL document CHEMBL5241122, “A concise review on marine bromopyrrole alkaloids as anticancer agents” (Bioorg Med Chem Lett, 2023).
One block for each compound: values may come before it.

Columns and labels:
[1] = tested on: L1210; assay: Cytotoxicity against mouse L1210 cells; type: functional, cell-based
[2] = tested on: OVCAR-3; assay: Inhibition of cell growth in human OVCAR-3 cells by SRB assay; type: functional; settings: read-out: ED50 (the source's name)
[3] = tested on: SF-295; assay: Inhibition of cell growth in human SF-295 cells by SRB assay; type: functional; settings: read-out: ED50 (the source's name)
[4] = tested on: A498; assay: Inhibition of cell growth in human A498 cells by SRB assay; type: functional; settings: read-out: ED50 (the source's name)
[5] = tested on: NCI-H460; assay: Inhibition of cell growth in human NCI-H460 cells by SRB assay; type: functional; settings: read-out: ED50 (the source's name)
[6] = tested on: KM-20L2; assay: Inhibition of cell growth in human KM-20L2 cells by SRB assay; type: functional; settings: read-out: ED50 (the source's name)
[7] = tested on: SK-MEL-5; assay: Inhibition of cell growth in human SK-MEL-5 cells by SRB assay; type: functional; settings: read-out: ED50 (the source's name)
[8] = tested on: LoVo; assay: Cytotoxicity against human LoVo cells incubated for 72 hrs by MTT assay; type: functional, cell-based
[9] = tested on: Bel-7402; assay: Cytotoxicity against human Bel-7402 cells incubated for 72 hrs by MTT assay; type: functional, cell-based; settings: Bel-7402, 72 h
[10] = tested on: MCF7; assay: Cytotoxicity against human MCF7 cells incubated for 72 hrs by MTT assay; type: functional, cell-based; settings: MCF7, 72 h
[11] = tested on: HeLa; assay: Cytotoxicity against human HeLa cells incubated for 72 hrs by MTT assay; type: functional, cell-based
[12] = tested on: CNE; assay: Cytotoxicity against human CNE cells incubated for 72 hrs by MTT assay; type: functional, cell-based
[13] = tested on: HepG2; assay: Cytotoxicity against human HepG2 cells incubated for 72 hrs by MTT assay; type: functional, cell-based; settings: HepG2, 72 h
[14] = Inhibition of recombinant human MAPK expressed in Escherichia coli assessed as reduction in MEK-1 phosphorylation incubated for 60 mins by ELISA assay
[15] = tested on: LoVo; assay: Inhibition of cell growth in human LoVo cells by SRB assay; type: functional, cell-based
[16] = target: Receptor tyrosine-protein kinase erbB-2 (Homo sapiens, UniProt P04626); assay: Inhibition of c-ErbB-2 (unknown origin)
Chain of Receptor tyrosine-protein kinase erbB-2 (P04626 whole entry): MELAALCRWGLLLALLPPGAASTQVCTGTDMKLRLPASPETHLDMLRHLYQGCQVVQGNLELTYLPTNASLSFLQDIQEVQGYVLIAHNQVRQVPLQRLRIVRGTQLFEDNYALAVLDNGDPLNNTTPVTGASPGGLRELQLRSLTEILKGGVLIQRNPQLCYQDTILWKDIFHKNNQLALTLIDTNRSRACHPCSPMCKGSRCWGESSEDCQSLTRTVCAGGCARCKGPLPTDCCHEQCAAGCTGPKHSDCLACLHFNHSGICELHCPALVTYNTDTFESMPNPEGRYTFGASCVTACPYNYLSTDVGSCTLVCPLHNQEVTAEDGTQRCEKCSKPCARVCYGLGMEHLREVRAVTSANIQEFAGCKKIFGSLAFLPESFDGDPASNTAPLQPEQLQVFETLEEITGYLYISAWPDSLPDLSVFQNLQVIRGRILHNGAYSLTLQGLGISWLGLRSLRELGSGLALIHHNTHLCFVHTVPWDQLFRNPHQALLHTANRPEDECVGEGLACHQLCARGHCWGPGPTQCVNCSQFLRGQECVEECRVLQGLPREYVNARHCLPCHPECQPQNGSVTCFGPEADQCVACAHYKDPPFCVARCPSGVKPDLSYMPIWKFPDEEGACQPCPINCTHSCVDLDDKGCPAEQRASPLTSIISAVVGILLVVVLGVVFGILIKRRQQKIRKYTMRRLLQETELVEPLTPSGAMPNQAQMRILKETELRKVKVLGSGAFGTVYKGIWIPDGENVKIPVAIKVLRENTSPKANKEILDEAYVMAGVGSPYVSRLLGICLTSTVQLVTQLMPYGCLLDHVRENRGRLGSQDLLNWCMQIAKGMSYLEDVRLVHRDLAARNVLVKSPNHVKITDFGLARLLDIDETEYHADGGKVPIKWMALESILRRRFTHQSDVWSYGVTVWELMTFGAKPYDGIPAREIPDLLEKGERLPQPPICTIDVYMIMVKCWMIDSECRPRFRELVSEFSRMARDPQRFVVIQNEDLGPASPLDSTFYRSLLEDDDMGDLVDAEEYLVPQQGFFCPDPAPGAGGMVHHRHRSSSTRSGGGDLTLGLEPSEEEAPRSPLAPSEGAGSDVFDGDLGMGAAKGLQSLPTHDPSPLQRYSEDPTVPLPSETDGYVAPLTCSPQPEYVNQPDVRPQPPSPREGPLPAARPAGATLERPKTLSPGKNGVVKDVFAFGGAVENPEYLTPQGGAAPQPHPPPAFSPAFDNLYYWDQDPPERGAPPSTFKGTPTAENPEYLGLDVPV

[17] = target: Cyclin-dependent kinase 4 (Homo sapiens, UniProt P11802); assay: Inhibition of CDK4 (unknown origin)
Chain of Cyclin-dependent kinase 4 (P11802 whole entry): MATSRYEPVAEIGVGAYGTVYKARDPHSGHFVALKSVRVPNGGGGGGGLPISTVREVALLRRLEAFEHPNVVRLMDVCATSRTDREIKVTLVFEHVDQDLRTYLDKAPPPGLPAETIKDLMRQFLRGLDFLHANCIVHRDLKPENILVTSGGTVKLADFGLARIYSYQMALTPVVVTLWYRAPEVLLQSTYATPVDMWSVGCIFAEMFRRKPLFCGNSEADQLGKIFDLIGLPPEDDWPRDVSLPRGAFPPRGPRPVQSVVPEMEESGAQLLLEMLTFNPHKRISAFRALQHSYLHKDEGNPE

[18] = tested on: P388; assay: Cytotoxicity against mouse P388 cells; type: functional, cell-based
[19] = tested on: Jurkat; assay: Antiinflammatory activity in PMA induced human Jurkat cells assessed as inhibition of IL-2 production by EIA assay; type: functional, cell-based
[20] = tested on: MCF7; assay: Cytotoxicity against human MCF7 cells by MTT assay; type: functional, cell-based
[21] = tested on: WRL68; assay: Cytotoxicity against human WRL68 cells by MTT assay; type: functional, cell-based
[22] = tested on: Caco-2; assay: Cytotoxicity against human Caco-2 cells by MTT assay; type: functional, cell-based
[23] = target: E3 ubiquitin-protein ligase CBL-B (Homo sapiens, UniProt Q13191); assay: Inhibition of Cbl-b (unknown origin) assessed as inhibition of Cbl-b dependent ubiquitination in presence of ATP measured after 13 hrs by fluorescence microplate reader assay
Chain of E3 ubiquitin-protein ligase CBL-B (Q13191 whole entry): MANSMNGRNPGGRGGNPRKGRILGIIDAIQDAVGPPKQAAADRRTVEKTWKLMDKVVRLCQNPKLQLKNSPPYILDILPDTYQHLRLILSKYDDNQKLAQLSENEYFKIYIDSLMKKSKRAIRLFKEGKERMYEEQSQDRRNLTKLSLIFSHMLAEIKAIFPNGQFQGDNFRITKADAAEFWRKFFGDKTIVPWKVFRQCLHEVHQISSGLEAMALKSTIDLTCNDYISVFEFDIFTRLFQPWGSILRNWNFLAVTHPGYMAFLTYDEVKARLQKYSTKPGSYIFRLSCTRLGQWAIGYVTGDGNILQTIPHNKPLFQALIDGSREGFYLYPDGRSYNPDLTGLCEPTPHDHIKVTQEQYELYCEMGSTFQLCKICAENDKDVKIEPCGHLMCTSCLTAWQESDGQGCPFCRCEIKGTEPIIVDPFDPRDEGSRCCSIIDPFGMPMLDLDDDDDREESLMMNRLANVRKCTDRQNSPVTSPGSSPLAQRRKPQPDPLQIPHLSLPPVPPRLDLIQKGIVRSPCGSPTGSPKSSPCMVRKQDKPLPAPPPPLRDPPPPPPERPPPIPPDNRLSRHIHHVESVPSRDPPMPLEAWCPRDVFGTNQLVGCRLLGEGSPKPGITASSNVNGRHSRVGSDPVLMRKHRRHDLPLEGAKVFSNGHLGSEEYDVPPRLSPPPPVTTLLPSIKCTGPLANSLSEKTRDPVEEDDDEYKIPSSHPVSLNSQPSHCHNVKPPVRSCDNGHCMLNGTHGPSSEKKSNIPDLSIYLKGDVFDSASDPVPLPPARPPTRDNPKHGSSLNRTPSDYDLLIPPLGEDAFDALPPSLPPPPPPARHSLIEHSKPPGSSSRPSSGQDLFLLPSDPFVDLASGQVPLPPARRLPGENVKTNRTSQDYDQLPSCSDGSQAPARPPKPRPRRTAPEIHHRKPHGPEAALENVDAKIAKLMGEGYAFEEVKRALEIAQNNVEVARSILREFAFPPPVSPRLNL

[24] = tested on: K562; assay: Antiproliferative activity against human K562 cells incubated for 72 hrs by SRB assay; type: functional, cell-based; settings: K562, 72 h
[25] = tested on: A549; assay: Antiproliferative activity against human A549 cells incubated for 72 hrs by SRB assay; type: functional, cell-based; settings: A549, 72 h
[26] = tested on: HCT-116; assay: Antiproliferative activity against human HCT-116 cells incubated for 72 hrs by SRB assay; type: functional, cell-based; settings: HCT-116, 72 h
[27] = tested on: MDA-MB-231; assay: Antiproliferative activity against human MDA-MB-231 cells incubated for 72 hrs by SRB assay; type: functional, cell-based; settings: MDA-MB-231, 72 h
[28] = tested on: SNU-638; assay: Antiproliferative activity against human SNU-638 cells incubated for 72 hrs by SRB assay; type: functional, cell-based; settings: SNU-638, 72 h
[29] = tested on: SK-HEP1; assay: Antiproliferative activity against human SK-HEP1 cells incubated for 72 hrs by SRB assay; type: functional, cell-based; settings: SK-HEP1, 72 h
[30] = tested on: MDA-MB-231; assay: Cytotoxicity against human MDA-MB-231 cells assessed as cell growth inhibition by cell based assay; type: functional
[31] = tested on: A549; assay: Cytotoxicity against human A549 cells assessed as cell growth inhibition by cell based assay; type: functional
[32] = tested on: PSN1; assay: Cytotoxicity against human PSN1 cells assessed as cell growth inhibition by cell based assay; type: functional
[33] = tested on: HT-29; assay: Cytotoxicity against human HT-29 cells assessed as cell growth inhibition by cell based assay; type: functional
[34] = tested on: KB; assay: Cytotoxicity against human KB cells; type: functional, cell-based
[35] = tested on: K562; assay: Cytotoxicity against human K562 cells; type: functional, cell-based

SMILES: CO[C@]12C[C@@H](CNC(=O)c3cc(Br)c[nH]3)O[C@H]1NC(=O)N2
IC50 [1]: 19.6 µM

SMILES: CO[C@@]12C[C@@H](CNC(=O)c3cc(Br)c[nH]3)O[C@@H]1NC(=O)N2
IC50 [1]: 20.9 µM

SMILES: COC(=O)C(NCC(=O)c1cc(Br)c(Br)[nH]1)C(C)C (stereo not given)
IC50 [8]: 0.96 µM
IC50 [9]: 27.8 µM
IC50 [10]: 28.6 µM
IC50 [11]: 13.8 µM
IC50 [12]: 43.5 µM
IC50 [13]: 15.3 µM

SMILES: COCNC(=O)c1cc(Br)c(Br)[nH]1
EC50 ([18]; read-out: ED50 (the source's name)): 69.4 µM

SMILES: Cc1ccccc1NC(=S)NNC(=O)c1cc(Br)c(Br)n1C
IC50 [20]: 0.07 µM
IC50 [21]: 0.07 µM
IC50 [22]: 0.07 µM

SMILES: Cn1cc(Br)cc1C(=O)NC[C@H]1CC2N=C(N)NC2[C@@H](c2c[nH]c(N)n2)[C@@H]1CNC(=O)c1cc(Br)cn1C (stereo not given in full)
IC50 [23]: 18 µM

SMILES: CN1C(=O)C[C@H](C(N)=O)NC(=O)C(O)CNC(=O)[C@H](CNC(=O)c2cc(Br)c(Br)[nH]2)NC(=O)[C@H](CN)NC(=O)C1Cc1cnc(Cl)[nH]1 (stereo not given in full)
GI50 [30]: > 12 µM
GI50 [31]: > 12 µM
GI50 [32]: > 12 µM
GI50 [33]: > 12 µM

SMILES: Cn1c(Br)ccc1C(=O)NC[C@H]1CC2N=C(N)NC2[C@@H](c2c[nH]c(N)n2)[C@@H]1CNC(=O)c1cc(Br)c[nH]1 (stereo not given in full)
IC50 [23]: 18 µM

SMILES: NC1NC(/C=C/CNC(=O)c2cc(Br)c(Br)[nH]2)=C([n+]2cccc(O)c2)N1 (stereo not given)
IC50 [34]: 20.7 µM
IC50 [35]: 20.7 µM

SMILES: O=C(NNC(=S)Nc1ccc(Cl)cc1)c1cc(Br)c(Br)[nH]1
IC50 [20]: 0.03 µM
IC50 [21]: 0.03 µM
IC50 [22]: 0.03 µM

SMILES: O=C(NNC(=S)Nc1ccc([N+](=O)[O-])cc1)c1cc(Br)c(Br)[nH]1
IC50 [20]: 0.03 µM
IC50 [21]: 0.03 µM
IC50 [22]: 0.03 µM

SMILES: NC1=N[C@@]23CCCN2C(=O)c2c([nH]c(Br)c2Br)[C@H]3N1
IC50 [18]: 20.3 µM

SMILES: Cn1cc(Br)cc1C(=O)NC[C@H]1CC2N=C(N)NC2[C@@H](c2c[nH]c(N)n2)[C@@H]1CNC(=O)c1cc(Br)c[nH]1 (stereo not given in full)
IC50 [23]: 18 µM

The next lines start with results.

EC50 [2]: 1.18 µM
EC50 [5]: 1.59 µM
EC50 [7]: 0.28 µM
SMILES: O=C1NC2n3c(cc(Br)c3Br)C(=O)N3CCCC23N1 (stereo not given)
EC50 [3]: 3.85 µM
EC50 [4]: 0.53 µM
EC50 [6]: 0.28 µM

IC50 [14]: 0.003 µM
IC50 [15]: 0.003 µM
SMILES: NC1=N/C(=C2\CCNC(=O)c3[nH]c(Br)cc32)C(=O)N1

IC50 [16]: 21 µM
IC50 [17]: 98.5 µM
SMILES: N=C1NC(=O)/C(=C2/CCNC(=O)c3[nH]c(Br)c(Br)c32)N1

IC50 [16]: 18.5 µM
IC50 [17]: 29.6 µM
SMILES: N=C1NC(=O)/C(=C2/CCNC(=O)c3[nH]cc(Br)c32)N1

IC50 [19]: 3.5 µM
SMILES: NC1=NC(=O)/C(=C2\CCNC(=O)c3[nH]c4ccccc4c32)N1

IC50 [24]: 12.9 µM
IC50 [25]: 31.3 µM
IC50 [26]: 9.93 µM
IC50 [27]: 32.8 µM
IC50 [28]: 7.92 µM
IC50 [29]: 35.2 µM
SMILES: NC1=NC(=O)C([C@@H]2[C@@H](CNC(=O)c3cc(Br)c[nH]3)[C@H](CNC(=O)c3cc(Br)c[nH]3)[C@H]2C2NC(N)=NC2=O)N1 (stereo not given in full)

IC50 [17]: 26.1 µM
SMILES: NC1NC[C@H](O)[C@@]2(N1)[C@H]1[C@H](CN3C(=O)c4cc(Br)cn4[C@H]4NC(N)N[C@@]413)[C@H](CNC(=O)c1cc(Br)c(Br)[nH]1)[C@@H]2Cl (stereo not given in full)
IC50 [1]: 26.7 µM
IC50 [34]: 26.7 µM
